Assay results reported in patent US8648012B2, “Herbicidal compositions comprising naptalam” (BASF SE, priority 2009, dated 2014).

Key:
[1] = tested on: Palmer amaranth (Amaranthus palmeri; AMAPA); assay: Example 1: postemergence weed control of dicamba plus naptalam mixtures, greenhouse; assay type: in vivo; conditions: 10 DAT
Procedure: (§1) In all use examples, plants were grown in a greenhouse environment.
(§2) Naptalam was used as a commercial SL formulation containing 240 g/l of naptalam (Alanap-L from Cheminova). Clopyralid was used as a commercial SL formulation containing 360 g/l of clopyralid (Stinger of Dow Agroscience). Picloram was used as a commercial SL formulation containing 240 g/l of picloram (Tordon 22K of Dow Agroscience). A mixture of 2,4-D+MCPP+Dicamba was used as a commercial SL formulation containing 283 g/l of 2,4-D, 63 g/l of MCPP and 25 g/l of Dicamba (Trimec Classic of PBI Gordon Corp.). Dicamba was used as a commercial SL formulation containing 480 g/l of Dicamba (Clarity BASF).
(§3) The evaluation for the plant damage or injury caused by the chemical compositions was carried out using a scale from 0 to 100%, when compared with the untreated control plants. Here, 0 means no damage and 100 means complete destruction of the plants. I50 values were estimated from % injury data at different application rates by non-linear regression of log-logistic dose-response curves.
(§4) 22 ff. E=X+Y−(X·Y/100) where • X=effect in percent using herbicide A at an application rate a; • Y=effect in percent using herbicide B at an application rate b; • E=expected effect (in %) of A+B at application rates a+b.
(§5) The value E corresponds to the effect (plant damage or injury) which is to be expected if the activity of the individual compounds is just additive. If the observed effect is higher than the value E calculated according to Colby, a synergistic effect is present.
(§6) Seedlings of velvetleaf (Abutilon theophrasti; ABUTH), Palmer amaranth (Amaranthus palmeri; AMAPA), and common lambsquarters (Chenopodium album; CHEAL) were treated with postemergence applications of either dicamba at 140 or 280 g ae/ha, naptalam at 56 g ae/ha, or the combination of dicamba and naptalam at 140 and 56 g ae/ha, respectively, when they were 10-12 cm in height. All treatment mixtures contained 0.25% (v/v) non-ionic surfactant plus 1% (w/v) ammonium sulfate. Plants were placed in a completely randomized design with four replications per treatment. Percent injury data was collected 10 days after treatment (DAT).

[2] = tested on: common lambsquarters (Chenopodium album; CHEAL); assay: as above; assay type: in vivo; conditions: 10 DAT
Procedure: as §1, §2, §3, §4, §5, §6

[3] = tested on: velvetleaf (Abutilon theophrasti; ABUTH); assay: as above; assay type: in vivo; conditions: 10 DAT
Procedure: as §1, §2, §3, §4, §5, §6

[4] = tested on: ABUTH; conditions: naptalam 0 g ae/ha
Procedure: as §1, §2, §3
(§7) Seedlings of ABUTH or CHEAL were treated with five different rates of dicamba between 0.14 and 140 g ae/ha when they were 10-12 cm in height. Naptalam was mixed with dicamba at rates of 0, 28, 35, 47, 70, or 140 g ae/ha to each dose-response series. All treatment mixtures included the addition of 0.25% (v/v) non-ionic surfactant and 1% (w/v) ammonium sulfate. Plants were placed in a completely randomized design with four replications per treatment. Percent injury data was collected 11 DAT and used to estimate the amount of dicamba necessary to obtain 50% injury (I50). […] estimates for solo applications of dicamba (I50 (—NPA)) were compared with I50 estimates for the combined application of dicamba and naptalam (I50 (+NPA)) to determine the relative increase of dicamba activity through the addition of naptalam.

[5] = tested on: CHEAL; conditions: naptalam 0 g ae/ha
Procedure: as §1, §2, §3, §7

[6] = tested on: Winter wheat (Triticum aestivum, TRZAW); assay: Example 3: preemergence crop selectivity of dicamba plus naptalam; assay type: in vivo; conditions: 13 DAT
Procedure: as §1, §2, §3
Winter wheat (Triticum aestivum, TRZAW) seeds were sown into soil, and the following day treated with five different rates of dicamba between 5.6 and 560 g ae/ha. Diflufenzopr (DFFP) or naptalam at rates of 224 g ae/ha was applied either alone or in combination with dicamba treatments. Following application, pots were placed in a completely randomized design with four replications per treatment. Percent injury data was collected 13 DAT.

[7] = tested on: perennial ryegrass (Lolium perenne, LOLPE); assay: Example 4: postemergence turf selectivity of dicamba plus naptalam; assay type: in vivo; conditions: 13 DAT
Procedure: as §1, §2, §3
(§8) Seedlings of tall fescue (Festuca arundinacea, FESAR) or perennial ryegrass (Lolium perenne, LOLPE) were treated with five different rates of dicamba between 28 and 2800 g ae/ha when they were 10-14 cm in height. DFFP or naptalam at rates of 140 g ae/ha were applied either alone or in combination with dicamba treatments. All treatment mixtures contained 0.25% (v/v) non-ionic surfactant plus 1% (w/v) ammonium sulfate. Following treatment, plants were placed in a completely randomized design with four replications per treatment. Percent injury data was collected 13 DAT.

[8] = tested on: tall fescue (Festuca arundinacea, FESAR); assay: as above; assay type: in vivo; conditions: 13 DAT
Procedure: as §1, §2, §3, §8

[9] = tested on: TRZAW; assay: Example 5: postemergence wheat selectivity of dicamba plus naptalam; assay type: in vivo, Triticum aestivum; conditions: 8 DAT
Procedure: as §1, §2, §3
Seedlings of TRZAW were treated with five different rates of dicamba between 14 and 1400 g ae/ha when they were 12-14 cm in height. In addition, DFFP or naptalam at 70 g ae/ha were applied either alone or in combination with dicamba treatments. All treatment mixtures contained 0.25% (v/v) non-ionic surfactant plus 1% (w/v) ammonium sulfate. Following treatment, plants were placed in a completely randomized design with four replications per treatment. Percent injury data was collected 8 DAT.

[10] = tested on: common amaranth (Amaranthus retroflexus AMARE); assay: Example 6: weed control of clopyralid or picloram plus naptalam mixtures; assay type: in vivo; conditions: postemergence
Procedure: (§9) Seedlings of common amaranth (Amaranthus retroflexus AMARE) and common lambsquarters (Chenopodium album; CHEAL), each 8 to 10 cm in height, were treated with postemergence applications of either clopyralid at 53.5 g ae/ha, picloram at 5.6 g ae/ha or naptalam at 140 g ae/ha, or the combination of clopyralid and naptalam at 53.5 g ae/ha and 140 g ae/ha, or the combination of picloram and naptalam at 5.6 g ae/ha and 140 g ae/ha, respectively, when they were 8-10 cm in height. All treatment mixtures contained 0.25% (v/v) non-ionic surfactant. […] Percent injury data was collected 10 days after treatment (DAT).

[11] = tested on: common lambsquarters (Chenopodium album; CHEAL); assay: as above; assay type: in vivo; conditions: postemergence
Procedure: as §9

[12] = tested on: sunflower (helianthus sp. HELSS); assay: Example 8: weed control of clopyralid+naptalam mixtures; assay type: in vivo; conditions: postemergence
Procedure: Seedlings of sunflower (helianthus sp. HELSS) were treated with postemergence applications of either clopyralid at 210 g ae/ha or at 105 g ae/ha, or naptalam at 56 g ae/ha, or the combination of clopyralid and naptalam at 210+56 g ae/ha or at 105+56 g ae/ha, respectively, when they were 8-10 cm in height. All treatment mixtures contained 0.25% (v/v) non-ionic surfactant. […] Percent injury data was collected 10 days after treatment (DAT).

[13] = tested on: sunflower (helianthus sp. HELSS); assay: Example 7: weed control of 2,4-D+MCPP+dicamba+naptalam mixtures; assay type: in vivo; conditions: postemergence, naptalam 56 g ae/ha
Procedure: as §1, §2, §3
Plants were placed in a completely randomized design with four replications per treatment. Percent injury data was collected 10 days after treatment (DAT).

[14] = naptalam 140 g ae/ha alone (dicamba 0)
[15] = DFFP 140 g ae/ha alone (dicamba 0)

`COc1c(Cl)ccc(Cl)c1C(=O)O` [Dicamba, 3,6-dichloro-2-methoxybenzoic acid] was tested, and the “Mean % Control AMAPA” value ([1]; dicamba 140 g ae/ha) was 80.0%, the “Mean % Control AMAPA” value ([1]; dicamba 280 g ae/ha) was 96.3% and the “Mean % Control CHEAL” value ([2]; dicamba 140 g ae/ha) was 86.3%. For the same compound, the “Mean % Control CHEAL” value ([2]; dicamba 280 g ae/ha) was 98.5%, the “Mean % Control ABUTH” value ([3]; dicamba 140 g ae/ha) was 65.0% and the “Mean % Control ABUTH” value ([3]; dicamba 280 g ae/ha) was 91.3%. The “ABUTH I50 (amount of dicamba for 50% injury)” value ([4]; 11 DAT) was 80.2 g ae/ha, the “ABUTH Fold-increase of dicamba activity = I50 (-NPA)/I50(+NPA)” value [4] was 1.0 and the “CHEAL I50 (amount of dicamba for 50% injury)” value ([5]; 11 DAT) was 35.2 g ae/ha. The “CHEAL Fold-increase of dicamba activity = I50 (-NPA)/I50(+NPA)” value [5] was 1.0, the “TRZAW Mean % Injury” value ([6]; dicamba alone 5.6 g ae/ha) was 0% and the “TRZAW Mean % Injury” value ([6]; dicamba alone 17.7 g ae/ha) was 0%. For the same compound, the “TRZAW Mean % Injury” value ([6]; dicamba alone 56.0 g ae/ha) was 0%, the “TRZAW Mean % Injury” value ([6]; dicamba alone 177.0 g ae/ha) was 0% and the “TRZAW Mean % Injury” value ([6]; dicamba alone 560.0 g ae/ha) was 76.3%. For the same compound, the “LOLPE Mean % Injury” value ([7]; dicamba alone 28.0 g ae/ha) was 0 e %, the “LOLPE Mean % Injury” value ([7]; dicamba alone 88.5 g ae/ha) was 0 e % and the “LOLPE Mean % Injury” value ([7]; dicamba alone 280 g ae/ha) was 0 e %. The “LOLPE Mean % Injury” value ([7]; dicamba alone 885 g ae/ha) was 0 e %, the “LOLPE Mean % Injury” value ([7]; dicamba alone 2800 g ae/ha) was 7.5 de % and the “FESAR Mean % Injury” value ([8]; dicamba alone 28.0 g ae/ha) was 0 c %. For the same compound, the “FESAR Mean % Injury” value ([8]; dicamba alone 88.5 g ae/ha) was 2.5 c %, the “FESAR Mean % Injury” value ([8]; dicamba alone 280 g ae/ha) was 5.0 c % and the “FESAR Mean % Injury” value ([8]; dicamba alone 885 g ae/ha) was 7.5 c %. The “FESAR Mean % Injury” value ([8]; dicamba alone 2800 g ae/ha) was 32.5 b %, the “TRZAW Mean % Injury” value ([9]; dicamba alone 14.0 g ae/ha) was 0% and the “TRZAW Mean % Injury” value ([9]; dicamba alone 44.0 g ae/ha) was 2.5%. For the same compound, the “TRZAW Mean % Injury” value ([9]; dicamba alone 140 g ae/ha) was 5.0%, the “TRZAW Mean % Injury” value ([9]; dicamba alone 440 g ae/ha) was 25.0% and the “TRZAW Mean % Injury” value ([9]; dicamba alone 1400 g ae/ha) was 50.0%.
For `Nc1c(Cl)c(Cl)nc(C(=O)O)c1Cl` [Picloram, picloram], the “Mean % Control (10 DAT) AMARE” value ([10]; picloram 5.6 g ae/ha) was 43% and the “Mean % Control (10 DAT) CHEAL” value ([11]; picloram 5.6 g ae/ha) was 43%.
`O=C(O)c1nc(Cl)ccc1Cl` [Clopyralid, clopyralid] was tested, and the “Mean % Control (10 DAT) AMARE” value ([10]; clopyralid 53.5 g ae/ha) was 23%, the “Mean % Control (10 DAT) CHEAL” value ([11]; clopyralid 53.5 g ae/ha) was 25% and the “Mean % Control (10 DAT) HELSS” value ([12]; clopyralid 105 g ae/ha) was 28%. The “Mean % Control (10 DAT) HELSS” value ([12]; clopyralid 210 g ae/ha) was 83%.
For `O=C(O)c1ccccc1C(=O)Nc1cccc2ccccc12` [Naptalam, N-1-naphthylphthalamic acid], the “Mean % Control AMAPA” value ([1]; naptalam 56 g ae/ha) was 18.8%, the “Mean % Control CHEAL” value ([2]; naptalam 56 g ae/ha) was 0% and the “Mean % Control ABUTH” value ([3]; naptalam 56 g ae/ha) was 0%. For the same compound, the “TRZAW Mean % Injury” value ([6]; naptalam 224 g ae/ha alone (dicamba 0)) was 0%, the “LOLPE Mean % Injury” value [7, 14] was 0 e % and the “FESAR Mean % Injury” value [8, 14] was 0 c %. The “TRZAW Mean % Injury” value ([9]; naptalam 70 g ae/ha alone (dicamba 0)) was 0%, the “Mean % Control (10 DAT) AMARE” value ([10]; naptalam 140 g ae/ha) was 0% and the “Mean % Control (10 DAT) CHEAL” value ([11]; naptalam 140 g ae/ha) was 5%. The “Mean % Control (10 DAT) HELSS” value [13] was 12% and the “Mean % Control (10 DAT) HELSS” value ([12]; naptalam 56 g ae/ha) was 10%.
`C/C(=N\NC(=O)Nc1cc(F)cc(F)c1)c1ncccc1C(=O)O` [DFFP, diflufenzopyr] was tested, and the “TRZAW Mean % Injury” value ([6]; DFFP 224 g ae/ha alone (dicamba 0)) was 61.3%, the “LOLPE Mean % Injury” value [7, 15] was 30.0 c % and the “FESAR Mean % Injury” value [8, 15] was 38.8 b %. For the same compound, the “TRZAW Mean % Injury” value ([9]; DFFP 70 g ae/ha alone (dicamba 0)) was 8.8%.
